Test results: publication PMC11395566, “Novel Copper (II) Complexes with Fluorine-Containing Reduced Schiff Base Ligands Showing Marked Cytotoxicity in the HepG2 Cancer Cell Line” (International Journal of Molecular Sciences, 2024)
Values joined by “and” are separate entries in the source; they are usually repeats but may differ in a detail not shown here. Identical values can stand only once.

Key:
Jack bean urease = Jack bean urease (Canavalia ensiformis, UniProt P07374); settings: read-out: Urease inhibition IC50 ± SD, 15 min pre-incubation
Sequence of Jack bean urease (P07374 whole entry, looked up): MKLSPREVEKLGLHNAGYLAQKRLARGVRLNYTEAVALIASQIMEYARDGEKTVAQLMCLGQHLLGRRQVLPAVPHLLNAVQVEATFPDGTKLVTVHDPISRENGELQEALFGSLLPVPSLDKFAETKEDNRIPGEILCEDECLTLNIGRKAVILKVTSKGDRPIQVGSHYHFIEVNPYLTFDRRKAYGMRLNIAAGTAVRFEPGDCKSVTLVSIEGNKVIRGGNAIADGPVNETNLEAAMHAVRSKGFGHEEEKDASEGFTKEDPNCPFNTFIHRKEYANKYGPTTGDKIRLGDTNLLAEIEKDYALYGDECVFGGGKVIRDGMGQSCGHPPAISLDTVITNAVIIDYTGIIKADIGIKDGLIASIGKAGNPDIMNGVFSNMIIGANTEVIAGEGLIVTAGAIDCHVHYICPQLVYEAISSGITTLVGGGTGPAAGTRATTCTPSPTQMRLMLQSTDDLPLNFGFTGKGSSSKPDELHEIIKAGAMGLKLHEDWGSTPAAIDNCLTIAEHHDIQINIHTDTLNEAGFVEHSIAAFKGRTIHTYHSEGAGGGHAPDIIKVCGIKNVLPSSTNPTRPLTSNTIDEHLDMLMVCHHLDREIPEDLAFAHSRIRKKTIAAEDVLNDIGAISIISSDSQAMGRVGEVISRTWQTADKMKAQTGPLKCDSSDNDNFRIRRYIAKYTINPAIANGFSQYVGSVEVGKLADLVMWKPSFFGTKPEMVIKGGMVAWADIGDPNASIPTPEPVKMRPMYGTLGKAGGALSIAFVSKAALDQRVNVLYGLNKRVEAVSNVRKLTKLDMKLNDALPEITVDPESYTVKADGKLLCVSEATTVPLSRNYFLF
Procedure: The urease inhibition activity of complexes was determined using the modified method reported by [48]. The assay mixture, containing 75 μL of Jack bean urease and 75 μL of the tested compounds with various concentrations dissolved in DMSO, was pre-incubated for 15 min on a 96-well assay. Afterwards, 75 μL of phosphate buffer at pH 6.8 (containing phenol red 0.18 mM) and urea (400 mM) were added and incubated at room temperature. We used microplate reader (560 nm) to measure the reaction time required for enough ammonium carbonate to form to raise the pH of the phosphate buffer from 6.8 to 7.7. The end-point of the reaction was determined by the color change of the phenol red indicator. Acetohydroxamic acid was used as a reference.

[1] = tested on: HepG2 hepatocellular carcinoma cells; test: Cytotoxicity, MTT assay; type: cell-based, human; settings: for IC50: HepG2, 24 h incubation, MTT
Procedure: The cytotoxic activity of the compounds L11–L14 and CuL11–CuL14 was evaluated in hepatocellular carcinoma HepG2 cells using the MTT assay. This colorimetric assay measures the reduction of the yellow tetrazolium salt 3-(4,5-dimethylthiazol-2-yl)-2,5-diphenyltetrazolium bromide (MTT) to purple formazan crystals by metabolically active cells.
HepG2 cells were seeded in 96-well plates at 70% confluency and pre-cultivated for 24 h before experiment in RPMI 1640 medium (Biosera, Cholet, France) with 10% fetal bovine serum, 1000 U·mL^−1 penicillin, and […] streptomycin, at 37 °C, 5% CO2 (maximum passage number 23).
HepG2 cells were incubated for 24 h with different concentrations (2–250 µM) of the tested compounds. The stock solutions of the compounds were freshly prepared in DMSO (Sigma-Aldrich, Burlington, MA, USA). Cells treated only with the RPMI 1640 medium served as a negative control, medium and DMSO served as a solvent control, and cells treated with cisplatin solution (Accord Healthcare, Harrow, UK) (2–250 µM) served as a positive control. After treatment, HepG2 cells were incubated for 4 h with MTT (Sigma Aldrich) solution (1mg/mL in PBS and complete RPMI medium). Then, the MTT solution was removed, and the formazan crystals were dissolved in DMSO for 30 min. The absorbance intensity was measured using an Epoch Spectrophotometer (BioTek, Winooski, VT, USA) at 570 nm. The experiments were performed in triplicate and cell cytotoxicity was expressed as a percentage relative to the untreated cells. Unexposed cells were used as a control and considered as having 100% cell viability. The viability of cells was calculated using the following formula:Viable cells (%) = A (treated cells)/A (control cells) × 100
The IC50 values were calculated using a four-parameter logistic regression model.

calf thymus DNA (ct-DNA) = test: Quenching of the fluorescence of EB-DNA adduct (ethidium bromide displacement); type: binding; settings: for EB-DNA dynamic quenching constant Ksv / EB-DNA fluorescence quenching rate constant kq: Stern–Volmer equation; for ΔI/I0, quenching of EB-DNA fluorescence: complex 0 to 2 × 10^−4 M
Procedure: A stock solution of ct-DNA was prepared by dissolving 6 mg of ct-DNA in 5 mL of citrate buffer. The ability of the compounds to displace EB from its EB-DNA conjugate was investigated by fluorescence emission spectroscopy. The EB-DNA conjugate was prepared by adding 20 µM EB and 26 µM ct-DNA to citrate buffer. The measurements were performed by the gradual addition of the complex solution in DMSO (1 mM) to the EB-DNA conjugate solution and observing the changes in the fluorescence spectra. The spectra were recorded in the range of 550–700 nm and the excitation wavelength was set to 515 nm. The Stern–Volmer constant KSV was used to evaluate the quenching efficiency of the complexes according to the Stern–Volmer equation (Equation (1)).

[2] = tested on: S. aureus CNCTC Mau 29/58; test: Antimicrobial activity, broth dilution method; type: cell-based, Staphylococcus aureus; settings: 24 h, 37 °C
Procedure: (§1) The antimicrobial activities of the synthesized copper (II) complexes were evaluated against E. coli CNCTC 377/79 (Gram-negative bacterium), S. aureus CNCTC Mau 29/58 (Gram-positive bacterium), and the yeast C. albicans CCM 8186. Bacterial strains were obtained from the Czech National Collection of Type Cultures (National Institute of Public Health, Prague, Czech Republic) and the yeast was purchased from the Czech Collection of Microorganisms (Masaryk University, Brno, Czech Republic). Bacteria were grown aerobically in nutrient broth (IMUNA PHARM, Šarišské Michaľany, Slovakia) and the yeast in BD Difco Sabouraud dextrose broth (Becton, Dickinson and Company, Franklin Lakes, NJ, USA) for 18 h at 37 °C or 48 h at 24 °C, respectively. Cultures were then maintained at 4 °C on appropriate solid medium: Endo agar (Oxoid Ltd., Basingstoke, UK) for E. coli, blood agar (Biomark Laboratories, Pune, India) for S. aureus, and BD Sabouraud dextrose agar (Becton, Dickinson and Company, Franklin Lakes, NJ, USA) for C. albicans. Working cultures were prepared by the incubation of a single colony of each microorganism in NB (bacteria) or SDB (yeast) for 18 h at 37 °C or 48 h at 24 °C, respectively. A microbial suspension was prepared in saline solution (0.85% NaCl) according to McFarland standard No 0.5 using a Lambda 35 UV/VIS Spectrophotometer (PerkinElmer Inc., Shelton, CT, USA) to obtain a turbidity (concentration) of ca 1.5 × 10^8 cfu/cm^3. After the dilution in the appropriate liquid medium (NB for bacteria and SDB for yeast), a working turbidity of 1.5 × 10^7 cfu/cm^3 was prepared.
(§2) Antimicrobial activity was determined using the broth dilution method as described in [7]. Stock solutions with initial concentrations of approx. 45 mM for ligands and 27 mM for copper complexes were prepared in DMSO immediately before use. For comparison, ciprofloxacine was used as a standard compound. Working test ligands and copper complexes were prepared by the two-fold serial dilution of stock solutions in sterile doubly concentrated NB or SDB to a final volume 100 mm^3 within the 96-well microplates. Freshly prepared inoculum (5 mm^3) of the tested microorganism was added to each appropriate well (bacteria into the plates with NB, C. albicans into the plates with SDB). The final turbidity of each microorganism in each well was ca 7.5 × 10^5 cfu/cm^3. […] Each concentration was assayed in triplicate. […]

[3] = tested on: T1, bovine serum albumin (BSA); test: Interaction with BSA by quenching of tryptophane fluorescence; type: binding; settings: for BSA binding constant K: Scatchard equation; for BSA fluorescence quenching rate constant kq / BSA fluorescence dynamic quenching constant Ksv: Stern–Volmer equation, 30 µM BSA in citrate buffer; for BSA fluorescence dynamic quenching constant Ksv: emission 336 nm
T1 construct: Bovine serum albumin (BSA) was chosen over human serum albumin (HSA) as the model protein target; purchased Sigma-Aldrich
Procedure: The interaction of all prepared copper complexes with BSA was studied by quenching the BSA fluorescence. BSA was dissolved in citrate buffer at the initial concentration of 30 µM. The quenching of the emission intensity of BSA tryptophane residues at 336 nm was monitored using the tested complexes (1 mM solution in DMSO) as quenchers with gradually increasing concentrations. The fluorescence emission spectra were recorded in the range of 300–420 nm. The wavelength of the excitation radiation was 280 nm. Measured data were used to study the interaction of a quencher with serum albumins using the Stern–Volmer (Equation (1)) and Scatchard (Equation (2)) equations, obtaining the Stern–Volmer constant KSV (M^−1), BSA quenching constant kq (M^−1 s^−1), binding constants KBSA (M^−1), and values of the number of binding sites n on albumin [45]. (1) I0/I=1+kqτ0 [Q]=1+KSV [Q] (2) ΔI/I0/[Q]=nKBSA−KBSAΔI/I0 where I0 = initial tryptophane fluorescence intensity of BSA, I = tryptophane fluorescence intensity of BSA after the addition of the complex, kq = quenching rate constant of BSA, KSV = dynamic quenching constant, τ0 = the average lifetime of BSA without the quencher, and [Q] = concentration of the quencher. KBSA is the bovine serum albumin binding constant and n is the number of binding sides per albumin.

E. coli CNCTC 377/79 = test: Antimicrobial activity, broth dilution method; type: cell-based, Escherichia coli; settings: 24 h, 37 °C
Procedure: as §1, §2

C. albicans CCM 8186 = test: Antimicrobial activity, broth dilution method; type: cell-based, Candida albicans; settings: 24 h, 24 °C
Procedure: as §1, §2

Molecule | IC50 (Jack bean urease) [µM] | IC50 [1] [µM] | EB-DNA dynamic quenching constant Ksv (calf thymus DNA (ct-DNA)) | EB-DNA fluorescence quenching rate constant kq (calf thymus DNA (ct-DNA)) | ΔI/I0, quenching of EB-DNA fluorescence (calf thymus DNA (ct-DNA)) [%] | MIC S. aureus [2] [µM] | BSA binding constant K [3] | BSA fluorescence quenching rate constant kq [3] | BSA fluorescence dynamic quenching constant Ksv [3] | MIC E. coli (E. coli CNCTC 377/79) [µM] | MIC C. albicans (C. albicans CCM 8186) [µM] | EB-DNA fluorescence quenching constant (kq) (calf thymus DNA (ct-DNA)) [M⁻¹ s⁻¹] | cell survival ([1]; HepG2, at a 50 µM concentration) [%]
CC(=O)NO [acetohydroxamic acid] | 185 |  |  |  |  |  |  |  |  |  |  |  | 
N.N.[Cl][Pt][Cl] [cisplatin, reference compound] |  | 337 ± 6.7 |  |  |  |  |  |  |  |  |  |  | 
Dichloro[(±)-trans-N,N′-bis-(3,5-bis-trifluoromethylbenzyl)-cyclohexane-1,2-diamine]copper (II) [Cu-L14] |  | 189 ± 7.1 | 3.50 (±0.09) M^−1 × 10^3 | 1.52 (±0.04) M^−1 s^−1 × 10^11 | 60.7 | 213.2 | 5.13 (±0.50) × 10^3 M^−1 | 6.39 (±0.19) × 10^11 M^−1s^−1 | 6.39 (±0.19) × 10^3 M^−1 | 213.2 | 1705.6 |  | 
Dichloro[(±)-trans-N,N′-bis-(3,5-difluorobenzyl)-cyclohexane-1,2-diamine]copper (II) [Cu-L13] |  | 64.4 ± 3.2 | 3.51 (±0.08) M^−1 × 10^3 | 1.53 (±0.03) M^−1 s^−1 × 10^11 | 60.3 | 424.5 | 4.70 (±0.32) × 10^3 M^−1 | 8.46 × 10^11 M^−1s^−1 and 8.46 (±0.26) × 10^11 M^−1s^−1 | 8.46 (±0.26) × 10^3 M^−1 | 212.3 | 1698.1 |  | 
Dichloro[(±)-trans-N,N′-bis-(4-fluorobenzyl)-cyclohexane-1,2-diamine]copper (II) [Cu-L11] |  | 61.3 ± 3.4 | 3.40 (±0.08) M^−1 × 10^3 | 1.48 (±0.04) M^−1 s^−1 × 10^11 | 61.3 | 217.3 | 5.99 (±0.44) × 10^3 M^−1 | 3.88e+11 M⁻¹ s⁻¹ | 3.90 (±0.08) × 10^3 M^−1 | 217.3 | 1738.1 | 1.48e+11 | 
Dichloro[(±)-trans-N,N′-bis-(4-trifluoromethylbenzyl)-cyclohexane-1,2-diamine]copper (II) [Cu-L12] |  | 28.7 ± 2 | 3.58 (±0.09) M^−1 × 10^3 | 1.56 (±0.04) M^−1 s^−1 × 10^11 | 59.7 | 26.7 | 8.59 (±0.64) × 10^3 M^−1 | 5.62 (±0.20) × 10^11 M^−1s^−1 | 5.62 (±0.20) × 10^3 M^−1 | 26.7 | 855.3 |  | 9.40
